Measurements from patent publication US20250066388A1, “1,3,4,7-TETRAHYDRO-2H-PYRROLO[3',2':5,6]PYRIDO[2,3-B][1,4]OXAZEPINE BCL-2 INHIBITORS” (AbbVie Inc., priority 2022, published 2025).

Legend:
[1] = test system: Molt-4 cells; test: Cell viability counter screen (CellTiter-Glo) in Molt-4 cells; format: cell-based; details: 24 hours, 10% Human Serum
Procedure: The acute lymphoblastic leukemia (ALL) human cell line RS4;11 (ATCC, Manassas VA) was used as the primary human cell line to assess the cellular activity of compound of the present Examples in vitro and their efficacy in vivo. […] The acute lymphoblastic leukemia cell line Molt-4, which is derived from immature T-lymphoid cells (T-ALL), was used as a counter screen assay.
3000 Cells (0.1×10^6/mL) were seeded in each well of 384-well plate and were treated for 24 hours in a humidified chamber with 5% CO2. Cell viability was determined by CellTiter-Glo as described by the manufacturer's instructions (Promega Corporation, Madison, WI, USA).

[2] = molecular target: Bcl-2 protein (Homo sapiens (Human), UniProt P10415); test: TR-FRET binding assay, Bcl-2; details: F-Bak peptide probe, GST-Bcl-2
Bcl-2 protein, sequence (P10415 other isoform, or with tags, fused parts or gaps): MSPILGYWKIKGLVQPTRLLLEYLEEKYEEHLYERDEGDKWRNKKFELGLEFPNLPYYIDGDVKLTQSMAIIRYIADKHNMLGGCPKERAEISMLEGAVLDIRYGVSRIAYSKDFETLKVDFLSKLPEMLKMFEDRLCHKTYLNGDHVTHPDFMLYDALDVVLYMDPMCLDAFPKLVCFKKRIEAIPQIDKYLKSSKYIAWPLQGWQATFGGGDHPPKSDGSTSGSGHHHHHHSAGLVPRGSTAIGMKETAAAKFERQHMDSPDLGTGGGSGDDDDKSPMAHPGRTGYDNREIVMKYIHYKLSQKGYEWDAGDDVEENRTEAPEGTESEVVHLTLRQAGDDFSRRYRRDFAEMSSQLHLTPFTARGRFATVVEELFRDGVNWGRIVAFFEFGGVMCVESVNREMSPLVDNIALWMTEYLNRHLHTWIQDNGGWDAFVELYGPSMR
Procedure: (§1) Determination of the utility of compounds having Formula (I) or Formula (II) as binders to and inhibitors of anti-apoptotic Bcl-2 proteins was performed using the Time Resolved-Fluorescence Resonance Energy Transfer (TR-FRET) Assay. Tb-anti-GST antibody was purchased from Invitrogen (Catalog No. PV4216).
A Bcl-2 human encoding sequence was cloned into a pET41A vector (Novagen). The protein was expressed with E. coli. BL21(DE3)-T1R strain in OETB autoinduction medium at 30° C. for 25 hours. The cell pellets were resuspended in lysis buffer (50 mM Tris, 140 mM NaCl, 1 mM DTT, 10% Glycerol, 2 mM MgCl2, pH 7.3) and lysed with Microfluidizer. The Bcl-2 protein in clarified cell-lysate was purified with affinity chromatography (GST and Ni-NTA). The eluate was loaded onto a Superdex 75 column and further purified with a Q Sepharose column. The protein was purified on a phenyl hydrophobic interaction column and dialyzed in the storage buffer (50 mM Tris, 50 mM NaCl, 2 mM DTT, pH 7.5) and stored at −80° C.
(§2) […] of a protein (Bcl-2 or Bcl-xL)/probe/antibody mixture pre-equilibrated for one hour in assay buffer was added to each well at final concentrations listed in Table 6 below.
(§3) The samples were then mixed on a shaker for 1 minute and equilibrated for an additional 3 hours at room temperature. For each assay plate, a probe/antibody and protein/antibody/probe mixture were included as a negative and a positive control, respectively. Fluorescence was measured on the Envision (Perkin Elmer) using a 340/35 nm excitation filter and 520/525 (F-Bak) and 495/510 nm (Tb-labeled anti-GST antibody) emission filters. Inhibition constants (Ki) were determined using Wang's equation (Wang FEBS Lett. 1995, 360, 111-114). The TR-FRET assay can be performed in the presence of varying concentrations of human serum (HS) to determine apparent half maximal inhibitory concentration (IC50) after HS protein binding.
(§4) Inhibition constants were determined using Wang's equation (Wang FEBS Lett. 1995, 360:111-4).

[3] = molecular target: Bcl-xL protein (Homo sapiens (Human), UniProt Q07817); test: TR-FRET binding assay, Bcl-xL; details: F-Bak peptide probe
Bcl-xL protein, sequence (Q07817 other isoform, or with tags, fused parts or gaps): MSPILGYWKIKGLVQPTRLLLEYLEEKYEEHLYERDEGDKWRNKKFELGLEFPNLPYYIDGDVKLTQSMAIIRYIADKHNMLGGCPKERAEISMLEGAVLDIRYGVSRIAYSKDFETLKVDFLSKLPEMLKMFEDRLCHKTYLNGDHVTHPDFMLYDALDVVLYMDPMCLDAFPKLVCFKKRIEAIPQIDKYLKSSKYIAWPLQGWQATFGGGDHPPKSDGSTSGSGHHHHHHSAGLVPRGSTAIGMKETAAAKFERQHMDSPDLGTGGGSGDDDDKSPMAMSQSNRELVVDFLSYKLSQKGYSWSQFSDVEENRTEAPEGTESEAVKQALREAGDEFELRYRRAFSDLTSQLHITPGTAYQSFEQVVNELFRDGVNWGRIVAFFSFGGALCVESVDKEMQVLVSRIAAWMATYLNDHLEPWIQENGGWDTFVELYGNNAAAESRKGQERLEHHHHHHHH
Procedure: as §1
A human Bcl-xL encoding sequence was cloned into a pET41A vector. The protein was expressed with E. coli. BL21(DE3)-T1R strain in OETB autoinduction medium at 30° C. for 25 hours. The cell pellets were resuspended in lysis buffer (50 mM Tris, 140 mM NaCl, 1 mM DTT, 10% Glycerol, 0.1% Triton X-100, pH 7.5) and lysed with Microfluidizer. The Bcl-xL protein in clarified cell-lysate was purified with GST affinity chromatography. The eluate was dialyzed in the storage buffer (1×PBS, 10% Glycerol, 2 mM DTT, 1 mM Sodium Azide, pH 7.4) and stored at −80° C.
as §2, §3, §4

Compound	EC50 [1]	Ki [2]	Ki [3]
CO[C@H]1CC[C@H](COc2ccc(S(=O)(=O)NC(=O)c3ccc(N4CCN5CC6=C(c7ccc(Cl)cc7)CC(C)(C)C[C@H]6OCCCOC[C@@H]5C4)cc3N3CCCOc4nc5[nH]ccc5cc43)cc2Cl)OC1 [Example 40, N-((3-chloro-4-(((2R,5S)-5-methoxytetrahydro-2H-pyran-2-yl)methoxy)phenyl)sulfonyl)-4-((4aS,10aR)-14-(4-chlorophenyl)-12,12-dimethyl-1,2,4a,5,8,9,10a,11,13,15-decahydro-7H,12H-benzo[f]pyrazino[2,1-c][1,8]dioxa[4]azacycloundecin-3(4H)-yl)-2-(3,4-dihydro-2H-pyrrolo[3′,2′:5,6]pyrido[2,3-b][1,4]oxazepin-1(7H)-yl)benzamide]	> 10000 nM	0.349 nM	199 nM
CC1(C)CC(c2ccc(Cl)cc2)=C2CN3CCN(c4ccc(C(=O)NS(=O)(=O)c5cnc(OC[C@H]6CC[C@@](C)(O)CC6)c(Cl)c5)c(N5CCCOc6nc7[nH]ccc7cc65)c4)C[C@H]3COCCCO[C@@H]2C1 [Example 50, N-((5-chloro-6-(((1s,4s)-4-hydroxy-4-methylcyclohexyl)methoxy)pyridin-3-yl)sulfonyl)-4-((4aS,10aR)-14-(4-chlorophenyl)-12,12-dimethyl-1,2,4a,5,8,9,10a,11,13,15-decahydro-7H,12H-benzo[f]pyrazino[2,1-c][1,8]dioxa[4]azacycloundecin-3(4H)-yl)-2-(3,4-dihydro-2H-pyrrolo[3′,2′:5,6]pyrido[2,3-b][1,4]oxazepin-1(7H)-yl)benzamide]	> 10000 nM		
C[C@H]1CCC(CNc2ccc(S(=O)(=O)NC(=O)c3ccc(N4CCN5CC6=C(c7ccc(Cl)cc7)CC(C)(C)C[C@H]6OCCCOCC5C4)cc3N3CCCOc4nc5[nH]ccc5cc43)cc2[N+](=O)[O-])OC1 (stereo partly drawn) [Example 23, 4-((4aS,10aR)-14-(4-chlorophenyl)-12,12-dimethyl-1,2,4a,5,8,9,10a,11,13,15-decahydro-7H,12H-benzo[f]pyrazino[2,1-c][1,8]dioxa[4]azacycloundecin-3(4H)-yl)-2-(3,4-dihydro-2H-pyrrolo[3′,2′:5,6]pyrido[2,3-b][1,4]oxazepin-1(7H)-yl)-N-((4-((((2R,5S)-5-methyltetrahydro-2H-pyran-2-yl)methyl)amino)-3-nitrophenyl)sulfonyl)benzamide]	> 10000 nM	0.634 nM	29.7 nM
CC1(C)CC(c2ccc(Cl)cc2)=C2CN3CCN(c4ccc(C(=O)NS(=O)(=O)c5cnc(OC[C@H]6CC[C@](C)(O)CC6)c(Cl)c5)c(N5CCCOc6nc7[nH]ccc7cc65)c4)C[C@H]3COCCCO[C@@H]2C1 [Example 42, N-((5-chloro-6-(((1r,4r)-4-hydroxy-4-methylcyclohexyl)methoxy)pyridin-3-yl)sulfonyl)-4-((4aS,10aR)-14-(4-chlorophenyl)-12,12-dimethyl-1,2,4a,5,8,9,10a,11,13,15-decahydro-7H,12H-benzo[f]pyrazino[2,1-c][1,8]dioxa[4]azacycloundecin-3(4H)-yl)-2-(3,4-dihydro-2H-pyrrolo[3′,2′:5,6]pyrido[2,3-b][1,4]oxazepin-1(7H)-yl)benzamide]	> 10000 nM		
CC1(C)CC(c2ccc(Cl)cc2)=C2CN3CCN(c4ccc(C(=O)NS(=O)(=O)c5ccc(OC[C@H]6CC[C@](C)(O)CC6)c(Cl)c5)c(N5CCCOc6nc7[nH]ccc7cc65)c4)C[C@H]3COCCCO[C@@H]2C1 [Example 43, N-((3-chloro-4-(((1r,4r)-4-hydroxy-4-methylcyclohexyl)methoxy)phenyl)sulfonyl)-4-((4aS,10aR)-14-(4-chlorophenyl)-12,12-dimethyl-1,2,4a,5,8,9,10a,11,13,15-decahydro-7H,12H-benzo[f]pyrazino[2,1-c][1,8]dioxa[4]azacycloundecin-3(4H)-yl)-2-(3,4-dihydro-2H-pyrrolo[3′,2′:5,6]pyrido[2,3-b][1,4]oxazepin-1(7H)-yl)benzamide]	> 10000 nM		
CC1(C)CC(c2ccc(Cl)cc2)=C2CN3CCN(c4ccc(C(=O)NS(=O)(=O)c5cnc(OC[C@]6(F)CC[C@@H](N7CCOCC7)CC6)c(Cl)c5)c(N5CCCOc6nc7[nH]ccc7cc65)c4)C[C@H]3COCCCO[C@@H]2C1 [Example 10, N-((5-chloro-6-(((1s,4s)-1-fluoro-4-morpholinocyclohexyl)methoxy)pyridin-3-yl)sulfonyl)-4-((4aS,10aR)-14-(4-chlorophenyl)-12,12-dimethyl-1,2,4a,5,8,9,10a,11,13,15-decahydro-7H,12H-benzo[f]pyrazino[2,1-c][1,8]dioxa[4]azacycloundecin-3(4H)-yl)-2-(3,4-dihydro-2H-pyrrolo[3′,2′:5,6]pyrido[2,3-b][1,4]oxazepin-1(7H)-yl)benzamide]		0.66 nM	5.91 nM
COCCO[C@H]1CC[C@H](CNc2ccc(S(=O)(=O)NC(=O)c3ccc(N4CCN5CC6=C(c7ccc(Cl)cc7)CC(C)(C)C[C@H]6OCCCOC[C@@H]5C4)cc3N3CCCOc4nc5[nH]ccc5cc43)cc2[N+](=O)[O-])OC1 [Example 35, 4-((4aS,10aR)-14-(4-chlorophenyl)-12,12-dimethyl-1,2,4a,5,8,9,10a,11,13,15-decahydro-7H,12H-benzo[f]pyrazino[2,1-c][1,8]dioxa[4]azacycloundecin-3(4H)-yl)-2-(3,4-dihydro-2H-pyrrolo[3′,2′:5,6]pyrido[2,3-b][1,4]oxazepin-1(7H)-yl)-N-((4-((((2R,5S)-5-(2-methoxyethoxy)tetrahydro-2H-pyran-2-yl)methyl)amino)-3-nitrophenyl)sulfonyl)benzamide]		0.0891 nM	23.1 nM
CC1(C)CC(c2ccc(Cl)cc2)=C2CN3CCN(c4ccc(C(=O)NS(=O)(=O)c5cnc(OCC6(F)CCN(C7COC7)CC6)c(Cl)c5)c(N5CCCOc6nc7[nH]ccc7cc65)c4)C[C@H]3COCCCO[C@@H]2C1 [Example 4, N-((5-chloro-6-((4-fluoro-1-(oxetan-3-yl)piperidin-4-yl)methoxy)pyridin-3-yl)sulfonyl)-4-((4aS,10aR)-14-(4-chlorophenyl)-12,12-dimethyl-1,2,4a,5,8,9,10a,11,13,15-decahydro-7H,12H-benzo[f]pyrazino[2,1-c][1,8]dioxa[4]azacycloundecin-3(4H)-yl)-2-(3,4-dihydro-2H-pyrrolo[3′,2′:5,6]pyrido[2,3-b][1,4]oxazepin-1(7H)-yl)benzamide]		0.28 nM	18.8 nM
CC1(C)CC(c2ccc(Cl)cc2)=C2CN3CCN(c4ccc(C(=O)NS(=O)(=O)c5ccc(NC[C@H]6CC[C@](C)(O)CC6)c([N+](=O)[O-])c5)c(N5CCCOc6nc7[nH]ccc7cc65)c4)C[C@H]3COCCCO[C@@H]2C1 [Example 32, 4-((4aS,10aR)-14-(4-chlorophenyl)-12,12-dimethyl-1,2,4a,5,8,9,10a,11,13,15-decahydro-7H,12H-benzo[f]pyrazino[2,1-c][1,8]dioxa[4]azacycloundecin-3(4H)-yl)-2-(3,4-dihydro-2H-pyrrolo[3′,2′:5,6]pyrido[2,3-b][1,4]oxazepin-1(7H)-yl)-N-((4-((((1r,4r)-4-hydroxy-4-methylcyclohexyl)methyl)amino)-3-nitrophenyl)sulfonyl)benzamide]		0.397 nM	15.8 nM
